A short description of test [1]: The compound was evaluated for the inhibition of [125I]- Angiotensin II (AII) binding to rat mesenteric membranes. The format is cell membranes, Membrane.
For the next test, the species on record is Oryctolagus cuniculus. In words: The compound was evaluated for the inhibition of angiotensin II (AII) induced rabbit aorta constriction. The format is functional.
The test system of the next test is Rattus norvegicus. In words: The compound was evaluated for the inhibition of Angiotensin II (AII) pressor response in conscious normotensive rats. It counts as functional. To be noted: read-out: ID50 (the source's name).

The values below come from ChEMBL document CHEMBL1126479, “Refinement of a molecular model of angiotensin II (AII) employed in the discovery of potent nonpeptide antagonists” (Bioorg Med Chem Lett, 1993).

By IC50 is commonly meant the concentration at which inhibition is half-maximal. In test [1], `CCCCc1ncc(/C=C(/Cc2ccccc2)C(=O)O)n1Cc1ccccc1Cl` showed a concentration for half-maximal inhibition (IC50) of 2600 nM. In the test listed under Oryctolagus cuniculus, this compound returned a Kb of 64 nM. For the same compound, the ED50 in the test on Rattus norvegicus amounted to 14 mg/kg.
Turning to `CCCCc1nc(Cl)c(CC(=O)O)n1Cc1ccccc1Cl`, in the test filed under Oryctolagus cuniculus, the Kb came out at 2700 nM. Besides, the ED50 in the test with Rattus norvegicus was 30 mg/kg.
As to `CCCCc1ncc(/C=C(/Cc2ccsc2)C(=O)O)n1Cc1ccccc1Cl`, in the test filed under Oryctolagus cuniculus, the Kb came out at 51 nM. The ED50 in the test on Rattus norvegicus amounted to 3.6 mg/kg.
The matching figures for `CCCCc1ncc(/C=C(/Cc2ccsc2)C(=O)O)n1Cc1ccc(C(=O)O)cc1`: 0.21 nM and 0.08 mg/kg.
Take `CCCCc1ncc(CC(=O)O)n1Cc1ccccc1Cl`: in the test on Rattus norvegicus, the ED50 came out at 22.5 mg/kg.
`CCCCc1ncc(/C=C\C(=O)O)n1Cc1ccccc1Cl` yielded a concentration for half-maximal inhibition (IC50) in test [1] of 8900 nM. In the test listed under Oryctolagus cuniculus, this compound registered a Kb of 810 nM.
